Test results taken from patent US20100130597A1, “DNA-PKCS MODULATES ENERGY REGULATION AND BRAIN FUNCTION” (The United State of America, as represented by the …, priority 2007, published 2010).

Tests used:
DNA-PKcs = biological target: T1, DNA-PKcs (Homo sapiens, UniProt P78527); test: DNA-PKcs activation in MCF7 cells, immunoblot for phosphorylated Ser2056; type: cell-based; conditions: data not shown
T1 construct: endogenous in cells; host or cells: MCF7 (ATCC)
Description: MCF7 cells were obtained from the ATCC. MCF7 cells in G0 were treated with varying doses of H2O2 (FIG. 1). The cells were examined while in the G0 phase of their life cycle to mimic the post-mitotic state of cells in vivo. Low passage MCF-7 cells in G0 were exposed to varying concentrations of H2O2 for 60 minutes with or without Euk-134 or ionizing radiation (5 Gy). For Western blot analysis of DNA-PKcs activation and the activation of other signaling pathways in this study, the following antibodies were used: ACC1 (Cell Signaling); p-ACC1 (Upstate); AMP-activated protein kinase (AMPK; Cell Signaling); p-AMPK(T172) (Cell Signaling); DNA-PK (Lab Vision); p53 (Novocastra); p-DNA-PK(S2056) (Abeam); p-p53(S15) (Cell Signaling); γ-H2AX (Upstate); 53BP1 (Novus Biologicals).
Activation of DNA-PKcs was visualized by immunoblotting cell lysates with antibody specific for phosphorylated Ser2056, which is autophosphorylated during DNA-PKcs activation (Chen et al., J. Biol. Chem. 280: 14709-15 (2005)) (FIG. 1). […] Instead, H2O2 increased DNA-PKcs activation, and such activation was abrogated by the antioxidant Euk-134 (FIG. 1), a potent synthetic superoxide dismutase and catalase mimetic (Chatterjee, Am. J. Nephrol. 24: 165-77 (2004)).
MCF7 cells were then cultured in 25 mM glucose. Aliquots of the cultured MCF7 cells were treated with ionizing radiation and/or the DNA-PKcs-specific inhibitor NU7026. Treatment with glucose and ionizing radiation increased DNA-PKcs phosphorylation (data not shown). […] The basal activity of DNA-PKcs in MCF-7 cells in 25 mM glucose was detectable even in the absence of ionizing radiation, but this basal activity was suppressed with the DNA-PKcs-specific inhibitor NU7026 (data not shown).

MCF7 cells [1] = test: Reactive oxygen species production in MCF7 cells (CM-H2DCFDA); type: cell-based; conditions: NU 7026 5 μM 12 h, DNP 200 μM 10 min, Troglitazone 30 μM 4 hr, Euk-134 5 μM 3 h, MnTBAP 14 μM 3 h, FIG. 4
Description: Measurement of intracellular reactive oxygen species was based on changes in the fluorescence intensity of redox-sensitive fluorescent probes, including CM-H2DCFDA. CM-H2DCFDA is a probe for intracellular hydrogen peroxide (Jou M J et al. J. Biomed Sci 9:507 (2002)). CM-H2DCFDA rapidly diffuses into cells, reacts with intracellular glutathione and thiols, and yields a fluorescent product that is retained inside the cell (Shanker G et al. Mol Brain Res 128:48, 2004). The fluorescence intensity of CM-H2DCFDA is therefore indicative of the amount of intracellular H2O2.
Briefly, cells were incubated with 10 uM CM-H2DCFDA for 30 min at 37° C. The cells were then excited at the peak excitation wavelength for CM-H2DCFDA (485 nm) and emissions at 535 nm were measured with Wallac Victor multilable counter (Perkin Elmer). For glucose treatment, the total sugar content in the media was kept constant by supplementing with mannitol, which is not metabolized.
MCF-7 cells were obtained from ATCC and grown as recommended. Confluent MCF-7 cells were incubated with serum-free DMEM medium for 3-12 h before the experiment. MCF-7 cells were then treated with DNA-PK inhibitor NU 7026 (5 μM; Calbiochem) for 12 h, DNP (200 μM; Sigma) for 10 min, Troglitazone (30 μM) for 4 hr, Euk-134 (5 μM; Eukarion) for 3 h, MnTBAP (14 μM; Calbiochem) for 3 h and Resveratrol.

LKB1 [2] = test: LKB1 activation (LKB1 phosphorylation) in C2C12 cells; type: cell-based; conditions: NU7026 2.5 μM, Resveratrol 50 μM, FIG. 51A
Description: Cells were treated with DNA-PKcs inhibitors to ascertain whether DNA-PKcs suppresses LKB1 activity in vitro.

MCF7 cells [3] = test: ATP level in MCF7 cells; type: cell-based; conditions: 1 and 2.5 μM, FIG. 20
Description: The level of ATP and the ADP/ATP ratio in cells were determined using an
ENLITEN ATP assay kit (Promega) and ApoGlow assay kit (Cambrex), respectively. […] To determine whether the AMPK-inhibitory function of DNA-PKcs is cell autonomous, quiescent MCF7 cells were treated with 1 and 2.5 μM NU7026.

[4] = Blood-brain barrier penetration inferred from behavioural effects; type: in vivo, mice; conditions: inferred from decreased anxiety/depression at a low-dose
Description: For any central nervous system drugs, a major rate-limiting step for uptake into the brain is BBB permeability. […] The BBB is an essential physiological barrier for the maintenance and regulation of brain function. It is comprised of brain microvascular endothelial cells that are connected by tight junctions. This transvascular route to the brain is impenetrable to the majority of drugs. Enhanced BBB permeability is obtained, for example, by increasing the lipid solubility of the water-soluble molecules.

AMPK = AMPK activation in mouse embryonic fibroblasts (wild-type, DNA-PK null, LKB1-null); type: cell-based
Description: The hypothesis that DNA-PKcs inhibition/deficiency induces activation of the LKB1-AMPK pathway was further tested using DNA-PK^−/− (null) mouse embryonic fibroblasts (MEFs) and LKB1-null MEFs treated with NU7026.

LKB1 [5] = test: LKB1 IP kinase assay of muscle of treated mice; type: in vivo; conditions: mice treated with a low-dose, data not shown
Elevated plus maze test = type: in vivo, mice
Description: To evaluate whether SCID mice may also have altered anxiety, fear and depression-like traits, an elevated plus maze test was performed, which is a commonly used test to quantify the level of anxiety- and depression-like traits in rodents (Pellow et al. J. Neurosci. Methods 14: 149-67 (1985)). The elevated plus maze has narrow runways that are located 16 inches above the surface that are either closed or open. The animal is placed in the center of an elevated 4-arm maze in which 2 arms are open and 2 are enclosed. Mice generally avoid the open arms because of their fear of open space and height. The elevated plus-maze is used to determine the rodent's response to a potentially dangerous environment and anxiety-related behavior is measured by the degree to which the rodent avoids the unenclosed arms of the maze. Increase in the number of times the animal enters the open arm and the amount of time spent in the open arms reflect decreased anxiety and depression.
Elevated plus maze tests, light/dark chamber tests, forced swim tests (FST) and hot plate tests were performed as described earlier.

O=c1cc(N2CCOCC2)oc2c1ccc1ccccc12 [NU7026, 2-(morpholin-4-yl)-benzo[h]chomen-4-one]
induction of DNA-PKcs activation by ionizing radiation (DNA-PKcs; MCF7 cells in 25 mM glucose): able to depress the induction of DNA-PKcs activation | basal activity of DNA-PKcs (DNA-PKcs; MCF-7 cells in 25 mM glucose, no ionizing radiation): suppressed | Reactive oxygen species production (MCF7 cells [1]): significantly decreased | LKB1 activation (LKB1 phosphorylation) (LKB1 [2]): caused LKB1 activation | ATP levels (MCF7 cells [3]): without significantly affecting ATP levels | blood-brain barrier (BBB) penetration [4]: can penetrate the blood-brain barrier (BBB) efficiently | AMPK activation (AMPK; DNA-PK−/− MEFs, FIG. 52A): significantly enhanced | AMPK activation (AMPK; LKB1-null MEFs, FIG. 52B): not in LKB1-null MEFs | AMPK activation (AMPK; wild-type MEFs, FIG. 52): activated | LKB1 activity in muscles (LKB1 [5]): strong induction of LKB1 activity | levels of anxiety/depression (Elevated plus maze test; elevated plus maze and light/dark chamber tests, FIGS. 47 and 48): dramatically lower levels of anxiety/depression | time in closed arm of the elevated plus maze (Elevated plus maze test; treated vs untreated mice): less time in a closed arm | time in open arm of the elevated plus maze (Elevated plus maze test; treated vs untreated mice): more time in the open arm
